Test results: ChEMBL document CHEMBL4414648, “Novel Benzohydroxamate-Based Potent and Selective Histone Deacetylase 6 (HDAC6) Inhibitors Bearing a Pentaheterocyclic Scaffold: Design, Synthesis, and Biological Evaluation” (J Med Chem, 2019)

Legend:
[1] = target: T1, Protein deacetylase HDAC6 (Homo sapiens, UniProt Q9UBN7); experiment: biochemical
T1 sequence (Q9UBN7 whole entry): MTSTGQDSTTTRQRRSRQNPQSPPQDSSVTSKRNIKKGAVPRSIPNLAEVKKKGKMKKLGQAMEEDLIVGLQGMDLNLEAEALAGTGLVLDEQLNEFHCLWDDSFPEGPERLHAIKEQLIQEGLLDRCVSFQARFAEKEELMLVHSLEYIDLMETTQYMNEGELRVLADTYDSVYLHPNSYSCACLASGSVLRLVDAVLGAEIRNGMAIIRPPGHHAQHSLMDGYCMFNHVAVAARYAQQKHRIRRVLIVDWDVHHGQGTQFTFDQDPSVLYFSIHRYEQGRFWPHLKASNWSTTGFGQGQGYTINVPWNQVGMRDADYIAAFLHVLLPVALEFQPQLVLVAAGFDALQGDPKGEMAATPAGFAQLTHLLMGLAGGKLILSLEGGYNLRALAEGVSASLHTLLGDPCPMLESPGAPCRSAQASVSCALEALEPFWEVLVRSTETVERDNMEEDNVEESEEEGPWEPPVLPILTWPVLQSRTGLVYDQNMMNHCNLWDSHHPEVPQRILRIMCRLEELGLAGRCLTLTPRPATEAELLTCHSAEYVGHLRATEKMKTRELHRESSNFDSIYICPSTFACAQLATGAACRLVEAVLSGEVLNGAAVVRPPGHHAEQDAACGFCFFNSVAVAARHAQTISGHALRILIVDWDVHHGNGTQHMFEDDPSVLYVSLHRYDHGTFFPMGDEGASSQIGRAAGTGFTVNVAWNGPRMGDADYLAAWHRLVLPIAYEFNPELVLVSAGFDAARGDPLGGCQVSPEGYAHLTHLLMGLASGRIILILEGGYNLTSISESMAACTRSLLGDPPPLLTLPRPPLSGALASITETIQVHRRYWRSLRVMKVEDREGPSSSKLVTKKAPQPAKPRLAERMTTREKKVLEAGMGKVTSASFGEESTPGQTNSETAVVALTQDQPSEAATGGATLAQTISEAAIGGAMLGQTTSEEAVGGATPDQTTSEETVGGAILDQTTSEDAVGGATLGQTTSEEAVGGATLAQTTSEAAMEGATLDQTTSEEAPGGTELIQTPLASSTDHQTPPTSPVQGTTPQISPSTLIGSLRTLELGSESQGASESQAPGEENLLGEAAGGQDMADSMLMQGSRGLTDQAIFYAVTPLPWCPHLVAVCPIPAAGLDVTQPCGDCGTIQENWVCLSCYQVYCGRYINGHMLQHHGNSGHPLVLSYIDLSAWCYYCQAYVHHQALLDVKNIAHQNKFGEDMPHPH

[2] = Stability in rat plasma assessed as parent compound remaining at 100 uM after 4 hrs by LC-MS/MS analysis; type: ADME, cell-free; settings: read-out: Stability
[3] = tested on: 697; experiment: Cytotoxicity against human 697 cells after 48 hrs by CellTiter 96 aqueous one solution assay; type: cell-based; settings: Homo sapiens, 697, 48 h
[4] = Stability in human plasma assessed as parent compound remaining at 100 uM after 4 hrs by LC-MS/MS analysis; type: ADME, cell-free; settings: read-out: Stability
[5] = Stability in human liver S9 fraction assessed as parent compound remaining at 5 uM after 90 mins in presence of NADPH by LC-MS/MS analysis; type: ADME, subcellular; settings: read-out: Stability
[6] = Stability in rat liver S9 fraction assessed as parent compound remaining at 5 uM after 90 mins in presence of NADPH by LC-MS/MS analysis; type: ADME, subcellular; settings: read-out: Stability
[7] = tested on: PBMC; experiment: Cytotoxicity against human PBMC cells after 72 hrs by CellTiter 96 aqueous one solution assay; type: cell-based
[8] = Selectivity ratio of IC50 for N-terminal Flag-tagged human HDAC10 (2 to 631 residues) expressed in baculovirus infected sf9 insect cells to IC50 for human N-terminal GST-tagged HDAC6 expressed in baculovirus infected sf9 insect cells
[9] = Selectivity ratio of IC50 for N-terminal His-tagged human HDAC11 expressed in baculovirus expression system to IC50 for human N-terminal GST-tagged HDAC6 expressed in baculovirus infected sf9 insect cells
[10] = Selectivity ratio of IC50 for human HDAC4 expressed in baculovirus infected sf9 insect cells to IC50 for human N-terminal GST-tagged HDAC6 expressed in baculovirus infected sf9 insect cells
[11] = Selectivity ratio of IC50 for C-terminal GST-tagged human HDAC5 to IC50 for human N-terminal GST-tagged HDAC6 expressed in baculovirus infected sf9 insect cells
[12] = Selectivity ratio of IC50 for N-terminal GST-tagged human HDAC7 (518 to end residues) expressed in baculovirus infected sf9 insect cells to IC50 for human N-terminal GST-tagged HDAC6 expressed in baculovirus infected sf9 insect cells
[13] = Selectivity ratio of IC50 for C-terminal His-tagged human HDAC8 expressed in baculovirus infected sf9 insect cells to IC50 for human N-terminal GST-tagged HDAC6 expressed in baculovirus infected sf9 insect cells
[14] = Selectivity ratio of IC50 for C-terminal His-tagged human HDAC9 (604 to 1066 residues) expressed in baculovirus infected sf9 insect cells to IC50 for human N-terminal GST-tagged HDAC6 expressed in baculovirus infected sf9 insect cells

| IC50 [1] [nM] | remaining at 4 h, 100 µM [2] [%] | remaining at 4 h, 100 µM [4] [%] | SMILES | IC50 [3] [nM] | further results |
| --- | --- | --- | --- | --- | --- |
| 5 | 18 | 100 | COc1ccc(CC(=O)N[C@@H](Cc2cscn2)C(=O)Nc2ccc(C(=O)NO)cc2)cc1OC | > 10000 | – |
| 16 | – | – | O=C(NO)c1ccc(Cc2nnc(-c3ccccc3)s2)cc1 | – | – |
| 9 | – | – | O=C(NO)c1ccc(Cn2nnnc2-c2ccccc2)cc1 | – | – |
| – | 40 | 100 | CCCCN(Cc1ccc(C(=O)NO)cc1)C(=O)Nc1ccccc1 [NEXTURASTAT A] | 401 | – |
| 6 | – | – | O=C(NO)c1ccc(Sc2nnc(-c3ccccc3)o2)cc1 | – | – |
| – | 38 | 98 | CN1CCc2c(c3ccccc3n2Cc2ccc(C(=O)NO)cc2)C1 [TUBASTATIN A] | 2010 | – |
| – | 91 | 100 | O=C(CCCCCCNC(=O)c1cnc(N(c2ccccc2)c2ccccc2)nc1)NO [RICOLINOSTAT] | 201 | – |
| 6 | – | – | O=C(NO)c1ccc(Sc2nnc(-c3ccccc3)s2)cc1 | – | – |
| – | 78 | 93 | O=C(NO)c1cc(F)c(Cn2nnc(-c3ncccn3)n2)c(F)c1 | > 1000 | remaining at […], 5 µM [5]: 89%; remaining at […], 5 µM [6]: 96%; IC50 [7]: > 1000 nM |
| 62 | – | – | O=C(NO)c1ccc(Sc2ncc(-c3ccccc3)s2)cc1 | – | – |
| – | 72 | 97 | CCN(CC)Cc1ccc2cc(COC(=O)Nc3ccc(C(=O)NO)cc3)ccc2c1 [GIVINOSTAT] | 100 | remaining at […], 5 µM [5]: 83%; remaining at […], 5 µM [6]: 6%; IC50 [7]: 313 nM |
| 137 | – | – | Cc1csc(Nc2ccc(C(=O)NO)cc2)n1 | – | – |
| 7 | 99 | 76 | O=C(NO)c1ccc(Cn2nnc(-c3ncccn3)n2)cc1 | > 1000 | remaining at […], 5 µM [5]: 83%; Ratio IC50 [8]: 111; Ratio IC50 [9]: 103; Ratio IC50 [10]: 665; remaining at […], 5 µM [6]: 99%; Ratio IC50 [11]: 721; Ratio IC50 [12]: 146; Ratio IC50 [13]: 46; Ratio IC50 [14]: 246; IC50 [7]: > 1000 nM |
| 2240 | – | – | Cc1cc(-c2nnc(Sc3ccc(C(=O)NO)c(F)c3)n2C)nn1C | – | – |
| 6 | – | – | O=C(NO)c1ccc(Cc2noc(-c3ccccc3)n2)cc1 | – | – |
| 5 | – | – | O=C(NO)c1ccc(Cc2nnc(-c3ccccc3)[nH]2)cc1 | – | – |
| – | 12 | 100 | O=C(NO)c1cnc(NC2(c3ccccc3)CC2)nc1 | 3390 | – |
| 102 | – | – | O=C(NO)c1ccc(Cn2cccn2)cc1 | – | – |
| 17 | – | – | Cn1c(Cc2ccc(C(=O)NO)cc2)nnc1-c1ccccc1 | – | – |
| – | 87 | 96 | O=C(NO)c1cc(F)c(Cn2nnc(-c3ccccn3)n2)c(F)c1 | > 1000 | remaining at […], 5 µM [5]: 86%; Ratio IC50 [8]: 1463; Ratio IC50 [9]: 696; Ratio IC50 [10]: 139; remaining at […], 5 µM [6]: 97%; Ratio IC50 [11]: 141; Ratio IC50 [12]: 119; Ratio IC50 [13]: 138; Ratio IC50 [14]: 102; IC50 [7]: > 1000 nM |
| – | 75 | 90 | Cn1c(Sc2c(F)cc(C(=O)NO)cc2F)nnc1-c1ccc(CN2CCCCC2)cc1 | > 1000 | remaining at […], 5 µM [5]: 69%; Ratio IC50 [8]: 814; Ratio IC50 [9]: 342; Ratio IC50 [10]: 126; remaining at […], 5 µM [6]: 74%; Ratio IC50 [11]: 101; Ratio IC50 [12]: 83; Ratio IC50 [13]: 32; Ratio IC50 [14]: 36; IC50 [7]: > 1000 nM |
| 2530 | – | – | Cc1cc(-c2nnc(Sc3c(F)c(F)c(C(=O)NO)c(F)c3F)n2C)nn1C | – | – |
| – | 45 | 79 | O=C(NO)c1ccc(CC(=O)N(CCO)c2ccccc2)cc1 | 8330 | – |
| 660 | – | – | O=C(NO)c1ccc(-c2nnc(-c3ccccc3)o2)cc1 | – | – |
| 66 | – | – | O=C(NO)c1ccc(Nc2nnc(-c3ccccc3)s2)cc1 | – | – |
